# Laboratory results taken from ChEMBL document CHEMBL1145144, “Structure-based design of cycloamide-urethane-derived novel inhibitors of human brain memapsin 2 (beta-secretase)” (Bioorg Med Chem Lett, 2005).
# pKi: −log10 of the molar value. Where “and” joins values, the source holds several entries; their conditions need not be identical. Identical values can stand only once.
# Assays:
# Beta-secretase 1 = Beta-secretase 1 (Homo sapiens, UniProt P56817); assay: Binding affinity for human brain memapsin 2
# Sequence of Beta-secretase 1 (P56817 whole entry): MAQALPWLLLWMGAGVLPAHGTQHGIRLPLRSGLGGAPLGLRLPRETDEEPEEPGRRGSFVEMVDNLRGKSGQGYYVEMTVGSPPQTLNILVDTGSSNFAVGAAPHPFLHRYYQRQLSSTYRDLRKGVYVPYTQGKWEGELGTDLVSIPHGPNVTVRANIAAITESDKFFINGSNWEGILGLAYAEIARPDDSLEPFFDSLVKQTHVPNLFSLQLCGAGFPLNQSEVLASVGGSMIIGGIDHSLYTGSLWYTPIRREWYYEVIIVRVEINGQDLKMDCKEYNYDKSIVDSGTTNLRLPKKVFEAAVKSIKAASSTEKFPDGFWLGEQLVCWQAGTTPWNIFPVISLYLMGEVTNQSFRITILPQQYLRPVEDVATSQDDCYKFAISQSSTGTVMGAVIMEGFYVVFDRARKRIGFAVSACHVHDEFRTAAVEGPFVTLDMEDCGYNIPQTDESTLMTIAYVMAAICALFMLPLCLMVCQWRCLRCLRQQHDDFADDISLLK
# Beta-secretase 2 = biological target: T1, Beta-secretase 2 (Homo sapiens, UniProt Q9Y5Z0); assay: Binding affinity for human brain memapsin 1
# T1 sequence (Q9Y5Z0 whole entry): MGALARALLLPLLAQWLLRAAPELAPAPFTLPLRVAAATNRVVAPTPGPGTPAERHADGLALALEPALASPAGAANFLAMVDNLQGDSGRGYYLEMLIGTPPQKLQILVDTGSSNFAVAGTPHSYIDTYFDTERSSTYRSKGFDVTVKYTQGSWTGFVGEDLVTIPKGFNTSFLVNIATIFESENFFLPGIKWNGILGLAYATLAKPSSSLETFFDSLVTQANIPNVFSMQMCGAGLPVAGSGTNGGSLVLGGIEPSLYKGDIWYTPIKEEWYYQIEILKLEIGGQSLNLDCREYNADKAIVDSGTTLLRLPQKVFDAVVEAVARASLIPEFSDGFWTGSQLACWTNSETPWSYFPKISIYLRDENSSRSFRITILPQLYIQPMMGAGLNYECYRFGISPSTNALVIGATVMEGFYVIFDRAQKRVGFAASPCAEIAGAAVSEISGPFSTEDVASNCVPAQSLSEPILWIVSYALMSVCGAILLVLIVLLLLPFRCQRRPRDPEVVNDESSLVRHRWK
Structure (SMILES),pKi (Beta-secretase 1),pKi (Beta-secretase 2)
CC(C)C[C@H](NC(=O)[C@@H]1CC(=O)NC/C=C/CCCOC(=O)N[C@@H](C(C)C)C(=O)N1)[C@@H](O)C[C@@H](C)C(=O)N[C@H](C(=O)NCc1ccccc1)C(C)C,7.85 and 7.51,–
C=CCCCOC(=O)N[C@H](C(=O)N[C@@H](CC(=O)NCC=C)C(=O)N[C@@H](CC(C)C)[C@@H](O)C[C@@H](C)C(=O)N[C@H](C(=O)NCc1ccccc1)C(C)C)C(C)C,6.95,–
CC(C)C[C@H](NC(=O)[C@@H]1CC(=O)NCCCCOC(=O)N[C@@H](C(C)C)C(=O)N1)[C@@H](O)C[C@@H](C)C(=O)N[C@H](C(=O)NCc1ccccc1)C(C)C,6.66,–
CC(C)C[C@H](NC(=O)[C@@H]1CC(=O)NCCCCCOC(=O)N[C@@H](C(C)C)C(=O)N1)[C@@H](O)C[C@@H](C)C(=O)N[C@H](C(=O)NCc1ccccc1)C(C)C,6.97,–
CC(C)C[C@H](NC(=O)[C@@H]1CC(=O)NCCCCCCOC(=O)N[C@@H](C(C)C)C(=O)N1)[C@@H](O)C[C@@H](C)C(=O)N[C@H](C(=O)NCc1ccccc1)C(C)C,–,8.35

# Other lines, results leading:
pKi (Beta-secretase 1),pKi (Beta-secretase 2),Structure (SMILES)
7.06,–,CC(C)C[C@H](NC(=O)[C@@H]1CC(=O)NC/C=C/COC(=O)N[C@@H](C(C)C)C(=O)N1)[C@@H](O)C[C@@H](C)C(=O)N[C@H](C(=O)NCc1ccccc1)C(C)C
7.55,–,CC(C)C[C@H](NC(=O)[C@@H]1CC(=O)NC/C=C/CCOC(=O)N[C@@H](C(C)C)C(=O)N1)[C@@H](O)C[C@@H](C)C(=O)N[C@H](C(=O)NCc1ccccc1)C(C)C
7.21,–,C=CCCOC(=O)N[C@H](C(=O)N[C@@H](CC(=O)NCC=C)C(=O)N[C@@H](CC(C)C)[C@@H](O)C[C@@H](C)C(=O)N[C@H](C(=O)NCc1ccccc1)C(C)C)C(C)C
